Assay results from US12303509B2, “Compounds for the treatment of BRAF-associated diseases and disorders” (Pfizer Inc., priority 2020, dated 2025).
Where a name gives a salt, the structure may show the parent alone.

Assays:
[1] = biological target: full-length FLAG-tagged B-Raf(V600E) (Homo sapiens (Human), UniProt P15056, V600E); test: BRAF V600E enzyme assay (TR-FRET competitive displacement); assay type: binding; settings: averaged IC50; TR-FRET tracer displacement, 60 min
Summary of the method: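 TR-FRET tracer competition: compound (top dose 10 μM, 3-fold, 11 points) incubated 60 min at ambient temperature with FLAG-tagged full-length B-Raf(V600E) (5 nM), Eu anti-FLAG cryptate (0.5 nM) and tracer (50 nM), pH 7.4 HEPES/MgCl2 buffer. 665/615 ratio converted to percent of control; IC50 where fitted curve crosses 50 POC.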

A375 cells = test: Cellular phospho-ERK inhibition assay in A375 cells; assay type: cell-based; settings: Homo sapiens, A-375, A375 cells (head prints A357), 2 hours treatment, read-out: A357 cell IC50
Summary of the method: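 In Cell Western detection of phospho-ERK1/2 (Thr202/Tyr204) over GAPDH after 2 h compound exposure (66 pM to 10 μM, 9 points, 0.25% DMSO) of A375 cells in DMEM or H1755 cells in RPMI, both with 10% FBS. Percent of control set by DMSO and 10 μM binimetinib; 4-parameter IC50.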

H1755 cells = test: Cellular phospho-ERK inhibition assay in H1755 cells; assay type: cell-based; settings: Homo sapiens, NCI-H1755, 2 hours treatment, read-out: H1755 Cell IC50
Method: A375 and H1755 cells were obtained from the American Type Culture Collection (ATCC, Rockville, MD). A375 cells were maintained in DMEM growth medium containing 10% FBS. H1755 cells were maintained in RPMI growth medium containing 10% FBS.
Cells were harvested according to standard protocols, counted and plated onto flat-bottom, 96-well tissue culture plates (Costar #3599) at 2.5×10^4 cells/well for A375 cells and 1.5×10^4 cells/well for H1755 cells in 100 μL/well of growth medium containing 10% FBS. After an overnight incubation at 37° C. with 5% CO2 cells were treated for 2 hours at 37° C., 5% CO2 with compounds prepared as a 9-point, 1:3.33 fold dilution series with final compound concentrations ranging from 66 pM-10 μM and a constant DMSO concentration of 0.25%. Control wells contained either 0.25% DMSO alone (uninhibited control) or 10 μM binimetinib (complete inhibition control). The levels of phosphorylated ERK are determined using an In Cell Western protocol: following compound incubation, growth medium was discarded, and cells were fixed with 0.4% formaldehyde in PBS for 20 minutes at room temperature. Cells were permeabilized with 100% methanol for 10 minutes at room temperature. Plates were washed with PBS containing 0.05% Tween-20 and blocked for 1 hour at room temperature with LI-COR Blocking Buffer (LI-COR Biosciences; Cat #927-40000). Plates were then incubated for 2 hours at room temperature with 50 μL of a 1:400 dilution of anti-phospho-ERK1/2 (Thr202/Tyr204) (Cell Signaling; Cat #9101) and a 1:1000 dilution of anti-GAPDH (Millipore; Cat #MAB374) in LI-COR blocking buffer containing 0.05% Tween-20. Plates were washed with PBS containing […] Tween-20 then incubated at room temperature for 1 hour with 50 μL of a 1:1000 dilution of anti-rabbit AlexaFluor 680 (Life Technologies; Cat #A21109) and a 1:1000 dilution of anti-mouse IRDye 800CW (LI-COR; Cat #926-32210) in LI-COR blocking buffer containing 0.05% Tween-20. Plates were analyzed by reading on an Odyssey CLx infrared scanner. For each well, the phospho-ERK signal was normalized to the GAPDH signal and converted to POC using the following equation:
[formula] • Where: • Xmax Average Uninhibited Controls • Xmin Average Complete Inhibition Controls IC50 values were then calculated using a 4-parameter fit in XLfit software and are provided in Table A1.

[2] = MDR1 LLC-PK1 and BCRP MDCKII permeability assay: permeability coefficient (Papp); assay type: in vitro ADME
Excerpt: (§1) Final organic concentration in the assay was 1%.

BCRP = BCRP (Homo sapiens (Human), UniProt Q9UNQ0); test: BCRP MDCKII permeability assay: efflux ratio; assay type: in vitro ADME; settings: dog
P-gp (MDR1) = P-gp (MDR1) (Homo sapiens (Human), UniProt P08183); test: MDR1 LLC-PK1 permeability assay: efflux ratio; assay type: in vitro ADME; settings: pig
Excerpt: as §1

Sequence of full-length FLAG-tagged B-Raf(V600E) (P15056 whole entry V600E): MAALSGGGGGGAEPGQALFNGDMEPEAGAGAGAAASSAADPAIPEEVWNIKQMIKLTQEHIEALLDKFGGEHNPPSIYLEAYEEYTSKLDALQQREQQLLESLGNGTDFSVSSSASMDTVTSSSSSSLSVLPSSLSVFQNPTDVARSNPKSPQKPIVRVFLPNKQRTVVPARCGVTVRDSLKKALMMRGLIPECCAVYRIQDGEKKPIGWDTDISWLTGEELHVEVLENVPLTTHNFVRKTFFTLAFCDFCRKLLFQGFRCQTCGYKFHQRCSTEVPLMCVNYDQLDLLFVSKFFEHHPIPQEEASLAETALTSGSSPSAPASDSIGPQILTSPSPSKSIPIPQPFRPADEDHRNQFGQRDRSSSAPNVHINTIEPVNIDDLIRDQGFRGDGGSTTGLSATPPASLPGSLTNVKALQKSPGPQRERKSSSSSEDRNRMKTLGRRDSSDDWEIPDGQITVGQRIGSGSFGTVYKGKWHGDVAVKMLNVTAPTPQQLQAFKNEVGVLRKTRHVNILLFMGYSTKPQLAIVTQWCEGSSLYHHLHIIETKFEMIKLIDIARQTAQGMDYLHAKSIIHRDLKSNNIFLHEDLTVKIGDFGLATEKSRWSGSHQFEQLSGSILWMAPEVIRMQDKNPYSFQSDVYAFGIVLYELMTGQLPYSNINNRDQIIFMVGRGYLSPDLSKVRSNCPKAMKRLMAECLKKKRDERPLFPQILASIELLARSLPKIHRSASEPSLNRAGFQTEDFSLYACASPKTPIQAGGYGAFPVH
Sequence of P-gp (MDR1) (P08183 whole entry, species assumed): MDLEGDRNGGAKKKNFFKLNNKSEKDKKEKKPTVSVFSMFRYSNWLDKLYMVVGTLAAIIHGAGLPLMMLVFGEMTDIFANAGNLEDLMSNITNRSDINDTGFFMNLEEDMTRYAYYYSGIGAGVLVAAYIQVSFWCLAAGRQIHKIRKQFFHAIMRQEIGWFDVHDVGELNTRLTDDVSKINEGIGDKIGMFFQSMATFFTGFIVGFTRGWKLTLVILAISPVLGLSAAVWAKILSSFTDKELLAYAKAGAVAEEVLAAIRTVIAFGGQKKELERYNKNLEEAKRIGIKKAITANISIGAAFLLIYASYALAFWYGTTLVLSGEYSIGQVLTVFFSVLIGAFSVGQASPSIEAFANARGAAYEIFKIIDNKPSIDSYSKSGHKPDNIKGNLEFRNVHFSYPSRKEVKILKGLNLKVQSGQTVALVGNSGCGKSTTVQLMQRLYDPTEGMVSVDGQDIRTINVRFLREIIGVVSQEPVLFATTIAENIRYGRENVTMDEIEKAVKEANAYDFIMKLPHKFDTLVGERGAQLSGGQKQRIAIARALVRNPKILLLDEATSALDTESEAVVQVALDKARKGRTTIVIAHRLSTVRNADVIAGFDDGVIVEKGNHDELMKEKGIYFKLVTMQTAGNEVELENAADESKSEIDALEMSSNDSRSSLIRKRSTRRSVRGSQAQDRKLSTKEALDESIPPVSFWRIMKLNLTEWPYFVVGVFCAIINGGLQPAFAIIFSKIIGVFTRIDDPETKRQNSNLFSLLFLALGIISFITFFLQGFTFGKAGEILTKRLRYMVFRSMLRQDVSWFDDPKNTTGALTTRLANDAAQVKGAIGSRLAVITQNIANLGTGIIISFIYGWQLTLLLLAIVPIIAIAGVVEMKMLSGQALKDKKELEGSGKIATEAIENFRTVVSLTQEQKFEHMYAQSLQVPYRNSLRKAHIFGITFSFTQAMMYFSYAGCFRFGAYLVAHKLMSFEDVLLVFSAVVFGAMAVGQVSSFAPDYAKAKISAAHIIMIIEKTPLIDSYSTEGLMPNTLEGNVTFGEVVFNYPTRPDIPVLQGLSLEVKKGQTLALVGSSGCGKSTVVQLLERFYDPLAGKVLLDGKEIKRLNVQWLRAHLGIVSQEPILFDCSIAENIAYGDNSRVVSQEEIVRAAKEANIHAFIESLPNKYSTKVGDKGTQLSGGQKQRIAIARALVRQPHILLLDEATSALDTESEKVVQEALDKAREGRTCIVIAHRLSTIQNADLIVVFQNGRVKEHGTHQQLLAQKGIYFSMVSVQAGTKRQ
Sequence of BCRP (Q9UNQ0 whole entry): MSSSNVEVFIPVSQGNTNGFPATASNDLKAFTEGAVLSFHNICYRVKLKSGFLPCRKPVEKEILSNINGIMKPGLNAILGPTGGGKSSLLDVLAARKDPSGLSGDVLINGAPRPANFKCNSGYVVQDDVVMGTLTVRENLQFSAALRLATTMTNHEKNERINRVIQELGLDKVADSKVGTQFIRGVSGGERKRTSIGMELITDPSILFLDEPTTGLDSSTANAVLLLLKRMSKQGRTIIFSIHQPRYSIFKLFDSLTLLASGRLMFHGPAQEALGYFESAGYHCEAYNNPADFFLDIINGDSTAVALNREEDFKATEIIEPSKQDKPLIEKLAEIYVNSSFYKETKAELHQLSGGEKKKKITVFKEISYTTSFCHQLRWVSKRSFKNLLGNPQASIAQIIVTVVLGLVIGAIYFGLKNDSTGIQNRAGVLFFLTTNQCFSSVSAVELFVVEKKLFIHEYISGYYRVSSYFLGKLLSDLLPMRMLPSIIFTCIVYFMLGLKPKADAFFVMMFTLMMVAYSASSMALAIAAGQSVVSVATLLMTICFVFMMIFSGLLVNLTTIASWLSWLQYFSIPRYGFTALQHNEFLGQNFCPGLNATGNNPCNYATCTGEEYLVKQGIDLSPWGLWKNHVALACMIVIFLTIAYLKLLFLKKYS

IC50 [1]	IC50 (A375 cells)	IC50 (H1755 cells)	Papp at 2 h, 1 µM [2]	efflux ratio at 2 h, 1 µM (BCRP)	efflux ratio at 2 h, 1 µM (P-gp (MDR1))	Structure (SMILES)
10 nM	12 nM	26 nM	230 nm/s	1.3	2.5	CO[C@@H]1CCN(S(=O)(=O)Nc2ccc(F)c(Nc3ccc4ncn(C)c(=O)c4c3Br)c2Cl)C1 [Example 8, (R)-N-(3-((5-bromo-3-methyl-4-oxo-3,4-dihydroquinazolin-6-yl)amino)-2-chloro-4-fluorophenyl)-3-methoxypyrrolidine-1-sulfonamide trifluoroacetate]
8 nM	12 nM	84 nM	270 nm/s	0.7	1.6	CO[C@@H]1CCN(S(=O)(=O)Nc2ccc(F)c(Oc3ccc4ncn(C)c(=O)c4c3C)c2Cl)C1 [Example 10, (R)-N-(2-chloro-3-((3,5-dimethyl-4-oxo-3,4-dihydroquinazolin-6-yl)oxy)-4-fluorophenyl)-3-methoxypyrrolidine-1-sulfonamide]
7 nM	17 nM	75 nM	280 nm/s	0.8	1.3	Cn1cnc2ccc(Nc3c(F)ccc(NS(=O)(=O)N4CCCC4)c3Cl)c(Br)c2c1=O [Example 11, N-(3-((5-bromo-3-methyl-4-oxo-3,4-dihydroquinazolin-6-yl)amino)-2-chloro-4-fluorophenyl)pyrrolidine-1-sulfonamide trifluoroacetate]
3 nM	7 nM	33 nM	260 nm/s	13	5.6	Cn1cnc2ccc(Nc3c(F)ccc(NS(=O)(=O)N4C[C@@H](F)[C@@H](F)C4)c3Cl)c(F)c2c1=O [Example 21, cis-N-(2-chloro-4-fluoro-3-((5-fluoro-3-methyl-4-oxo-3,4-dihydroquinazolin-6-yl)amino)phenyl)-3,4-difluoropyrrolidine-1-sulfonamide]
3 nM	15 nM	52 nM	340 nm/s	5.6	2.7	Cn1cnc2ccc(Nc3c(F)ccc(NS(=O)(=O)N4C[C@@H](F)[C@@H](F)C4)c3Cl)c(Cl)c2c1=O [Example 22, cis-N-(2-chloro-3-((5-chloro-3-methyl-4-oxo-3,4-dihydroquinazolin-6-yl)amino)-4-fluorophenyl)-3,4-difluoropyrrolidine-1-sulfonamide]
3 nM	6 nM	29 nM	240 nm/s	17.6	3	Cn1cnc2ccc(Nc3c(F)ccc(NS(=O)(=O)N4CCC(F)(F)C4)c3Cl)c(F)c2c1=O [Example 23, N-(2-chloro-4-fluoro-3-((5-fluoro-3-methyl-4-oxo-3,4-dihydroquinazolin-6-yl)amino)phenyl)-3,3-difluoropyrrolidine-1-sulfonamide]
2 nM	8 nM	25 nM	270 nm/s	2.6	2.5	Cn1cnc2ccc(Nc3c(F)ccc(NS(=O)(=O)N4CC[C@@H](F)C4)c3Cl)c(Br)c2c1=O [Example 24, (R)-N-(3-((5-bromo-3-methyl-4-oxo-3,4-dihydroquinazolin-6-yl)amino)-2-chloro-4-fluorophenyl)-3-fluoropyrrolidine-1-sulfonamide trifluoroacetate]
2 nM	16 nM	94 nM	300 nm/s	2.4	1.6	Cn1cnc2ccc(Nc3c(F)ccc(NS(=O)(=O)N4CCC(F)(F)C4)c3Cl)c(Cl)c2c1=O [Example 25, N-(2-chloro-3-((5-chloro-3-methyl-4-oxo-3,4-dihydroquinazolin-6-yl)amino)-4-fluorophenyl)-3,3-difluoropyrrolidine-1-sulfonamide trifluoroacetate]
6 nM	4 nM	15 nM	310 nm/s	3.7	3.3	Cn1cnc2ccc(Nc3c(F)ccc(NS(=O)(=O)N4CC[C@@H](OC(F)F)C4)c3Cl)c(F)c2c1=O [Example 26, (R)-N-(2-chloro-4-fluoro-3-((5-fluoro-3-methyl-4-oxo-3,4-dihydroquinazolin-6-yl)amino)phenyl)-3-(difluoromethoxy)pyrrolidine-1-sulfonamide]
5 nM	5 nM	27 nM	390 nm/s	4.4	2.7	Cn1cnc2ccc(Nc3c(F)ccc(NS(=O)(=O)N4CC[C@H](F)C4)c3Cl)c(F)c2c1=O [Example 27, (S)-N-(2-chloro-4-fluoro-3-((5-fluoro-3-methyl-4-oxo-3,4-dihydroquinazolin-6-yl)amino)phenyl)-3-fluoropyrrolidine-1-sulfonamide trifluoroacetate]
4 nM	7 nM	38 nM	370 nm/s	1.7	2	Cn1cnc2ccc(Nc3c(F)ccc(NS(=O)(=O)N4CC[C@H](F)C4)c3Cl)c(Cl)c2c1=O [Example 28, (S)-N-(2-chloro-3-((5-chloro-3-methyl-4-oxo-3,4-dihydroquinazolin-6-yl)amino)-4-fluorophenyl)-3-fluoropyrrolidine-1-sulfonamide]
1 nM	9 nM	168 nM	310 nm/s	1	1.2	Cn1cnc2ccc(Nc3c(F)c(F)cc(NS(=O)(=O)N4CCCC4)c3Cl)c(Cl)c2c1=O [Example 31, N-(2-chloro-3-((5-chloro-3-methyl-4-oxo-3,4-dihydroquinazolin-6-yl)amino)-4,5-difluorophenyl)pyrrolidine-1-sulfonamide trifluoroacetate]
2 nM	5 nM	83 nM	320 nm/s	1	1.8	CO[C@@H]1CCN(S(=O)(=O)Nc2cc(F)c(F)c(Nc3ccc4ncn(C)c(=O)c4c3Cl)c2Cl)C1 [Example 32, (R)-N-(2-chloro-3-((5-chloro-3-methyl-4-oxo-3,4-dihydroquinazolin-6-yl)amino)-4,5-difluorophenyl)-3-methoxypyrrolidine-1-sulfonamide trifluoroacetate]
1 nM	8 nM	84 nM	250 nm/s	2.2	1.7	Cn1cnc2ccc(Nc3c(F)c(F)cc(NS(=O)(=O)N4CC[C@@H](F)C4)c3Cl)c(Cl)c2c1=O [Example 33, (R)-N-(2-chloro-3-((5-chloro-3-methyl-4-oxo-3,4-dihydroquinazolin-6-yl)amino)-4,5-difluorophenyl)-3-fluoropyrrolidine-1-sulfonamide trifluoroacetate]
4 nM	4 nM	54 nM	300 nm/s	2.6	2.9	CO[C@@H]1CCN(S(=O)(=O)Nc2cc(F)c(F)c(Nc3ccc4ncn(C)c(=O)c4c3Cl)c2F)C1 [Example 34, (R)-N-(3-((5-chloro-3-methyl-4-oxo-3,4-dihydroquinazolin-6-yl)amino)-2,4,5-trifluorophenyl)-3-methoxypyrrolidine-1-sulfonamide]
